Results as given in US8993756B2 (Merck Sharp & Dohme Corp., priority 2011, dated 2015).
pIC50: −log10 of the molar value.

Columns and labels:
JAK2 = JAK2 (Homo sapiens (Human), UniProt O60674); test: Jak Biochemical HTRF Assay (JAK2); conditions: recombinant GST-tagged catalytic domain, [ATP] 8.5 μM
Description: (§1) Biological Assays Jak Biochemical HTRF Assay Protocol
The ability of compounds to inhibit the activity of JAK1, JAK2, JAK3, and Tyk2 was measured using a recombinant purified GST-tagged catalytic domain for each enzyme (Invitrogen JAK1 #M4290, JAK2 #M4290, JAK3 #M4290, Tyk2 #M4290) in an HTRF format biochemical assay. […] The basic assay protocol is as follows: First, 250 nL of diluted compounds in DMSO were dispensed into the wells of a dry 384-well Black plate (Greiner #781076) using a Labcyte Echo 555 acoustic dispenser. Subsequent reagent additions employed an Agilent Bravo. Next, 18 μL of 1.11× enzyme and 1.11× substrate in 1× assay buffer (Invitrogen kinase buffer # PV3189, 2 mM DTT, 0.05% BSA) were added to the wells and shaken and then preincubated for 30 minutes at room temperature to allow compound binding to equilibrate. After equilibration, 2 μL of 10×ATP in 1× assay buffer was added to initiate the kinase reaction and the plates were shaken and then incubated at room temperature for 120 minutes. At the end of the incubation, 20 μL of 2× stop buffer (streptavidin-Dylight 650 (Thermo #84547B100 mL), Eu-tagged pY20 antibody (Perkin Elmer #AD0067), EDTA, HEPES, and Triton) was added to quench the reaction. Plates were shaken and centrifuged and then incubated 60 minutes at room temperature and then read on a Perkin Elmer Envision (λex=337 nm, λem=665 and 615 nm, TRF delay time=20 μs). HTRF signal=10,000*665 nm reading 615 nm reading. After normalization to untreated controls, the percent inhibition of the HTRF signal at each compound concentration was calculated. The plot of percent inhibition versus the log of compound concentration was fit with a 4-parameter dose response equation to calculate IC50 values.

JAK3 = JAK3 (Homo sapiens (Human), UniProt P52333); test: Jak Biochemical HTRF Assay (JAK3); conditions: recombinant GST-tagged catalytic domain, [ATP] 2.9 μM
Description: as §1
The ability of compounds to inhibit the activity of JAK1, JAK2, JAK3, and Tyk2 was measured using a recombinant purified GST-tagged catalytic domain for each enzyme (Invitrogen JAK1 #M4290, JAK2 #M4290, JAK3 #M4290, Tyk2 #M4290) in an HTRF format biochemical assay. […] Subsequent reagent additions employed an Agilent Bravo. […] After equilibration, 2 μL of 10×ATP in 1× assay buffer was added to initiate the kinase reaction and the plates were shaken and then incubated at room temperature for 120 minutes. At the end of the incubation, 20 μL of 2× stop buffer (streptavidin-Dylight 650 (Thermo #84547B100 mL), Eu-tagged pY20 antibody (Perkin Elmer #AD0067), EDTA, HEPES, and Triton) was added to quench the reaction. […] After normalization to untreated controls, the percent inhibition of the HTRF signal at each compound concentration was calculated. The plot of percent inhibition versus the log of compound concentration was fit with a 4-parameter dose response equation to calculate IC50 values.

JAK3, sequence (P52333 822-1111): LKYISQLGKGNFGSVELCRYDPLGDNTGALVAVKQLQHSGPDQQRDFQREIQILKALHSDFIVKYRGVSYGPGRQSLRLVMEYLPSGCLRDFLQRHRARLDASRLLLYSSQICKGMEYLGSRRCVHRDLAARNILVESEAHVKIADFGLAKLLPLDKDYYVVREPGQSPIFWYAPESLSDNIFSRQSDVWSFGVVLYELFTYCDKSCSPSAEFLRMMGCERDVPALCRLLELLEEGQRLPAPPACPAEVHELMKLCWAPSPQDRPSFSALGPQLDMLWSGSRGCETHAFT
JAK2, sequence (O60674 849-1124): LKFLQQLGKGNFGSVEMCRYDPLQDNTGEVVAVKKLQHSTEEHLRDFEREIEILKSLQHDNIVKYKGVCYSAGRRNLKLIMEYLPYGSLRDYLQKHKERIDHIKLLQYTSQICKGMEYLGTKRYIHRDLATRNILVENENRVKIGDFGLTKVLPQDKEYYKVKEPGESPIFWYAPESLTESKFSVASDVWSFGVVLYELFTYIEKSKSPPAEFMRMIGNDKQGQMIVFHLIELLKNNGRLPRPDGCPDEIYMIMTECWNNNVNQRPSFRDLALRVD

pIC50 (JAK2) | pIC50 (JAK3) | pIC50 (JAK2; given as range class) | pIC50 (JAK3; given as range class) | SMILES
7.27 | 8.32 |  |  | CCOC(=O)c1c[nH]c2ncnc(-c3cc4ccccc4s3)c12 [Example 1-50, ethyl 4-(1-benzothiophen-2-yl)-7H-pyrrolo[2,3-d]pyrimidine-5-carboxylate]
6.56 | 8.14 |  |  | CCOC(=O)c1c[nH]c2ncnc(-c3ccc4cn(C)nc4c3)c12 [Example 1-5, ethyl 4-(2-methyl-2H-indazol-6-yl)-7H-pyrrolo[2,3-d]pyrimidine-5-carboxylate]
 |  | < 6.30 | 6.30 to 8.00 | CCOC(=O)c1c[nH]c2ncnc(-c3cccc(NC(=O)/C=C/c4ccco4)c3)c12 [Example 5-32, ethyl 4-(3-{[(2E)-3-furan-2-ylprop-2-enoyl]amino}phenyl)-7H-pyrrolo[2,3-d]pyrimidine-5-carboxylate]
 |  | < 6.30 | 6.30 to 8.00 | CCOC(=O)c1c[nH]c2ncnc(C3=CCOCC3)c12 [Example 1-98, ethyl 4-(3,6-dihydro-2H-pyran-4-yl)-7H-pyrrolo[2,3-d]pyrimidine-5-carboxylate]
7.15 | 8.85 |  |  | COc1ccc(F)cc1-c1c[nH]c2ncnc(-c3ccccc3)c12 [Example 33-3, 5-(5-fluoro-2-methoxyphenyl)-4-phenyl-7H-pyrrolo[2,3-d]pyrimidine]
 |  | < 6.30 | 6.30 to 8.00 | C=C(C)C(=O)Nc1cccc(-c2ncnc3[nH]cc(-c4ccccn4)c23)c1 [Example 21-1, N-(3-(5-(Pyridin-2-yl)-7H-pyrrolo[2,3-d]pyrimidin-4-yl)phenyl)methacrylamide]
 |  | 6.30 to 8.00 | 6.30 to 8.00 | COc1ncccc1-c1c[nH]c2ncnc(-c3ccccc3)c12 [Example 32-1, 5-(2-Methoxypyridin-3-yl)-4-phenyl-7H-pyrrolo[2,3-d]pyrimidine]
 |  | 6.30 to 8.00 | 6.30 to 8.00 | CCOC(=O)c1c[nH]c2ncnc(-c3cnc4[nH]ccc4c3)c12 [Example 1-84, ethyl 4-(1H-pyrrolo[2,3-b]pyridin-5-yl)-7H-pyrrolo[2,3-d]pyrimidine-5-carboxylate]
< 5.83 | 8.27 |  |  | C=C(C)C(=O)Nc1cccc(-c2ncnc3[nH]cc(-c4ccc(C)cc4)c23)c1 [Example 20-7, 2-methyl-N-{3-[5-(4-methylphenyl)-7H-pyrrolo[2,3-d]pyrimidin-4-yl]phenyl}prop-2-enamide]
< 5.83 | 8.12 |  |  | C=C(C)C(=O)Nc1cccc(-c2ncnc3[nH]cc(-c4cnc[nH]4)c23)c1 [Example 21-2, N-(3-(5-(1H-imidazol-5-yl)-7H-pyrrolo[2,3-d]pyrimidin-4-yl)phenyl)methacrylamide]
 |  | < 6.30 | 6.30 to 8.00 | CCOC(=O)c1c[nH]c2ncnc(-c3ccc4ncccc4c3)c12 [Example 1-49, ethyl 4-quinolin-6-yl-7H-pyrrolo[2,3-d]pyrimidine-5-carboxylate]
 |  | < 6.30 | 6.30 to 8.00 | CCOC(=O)c1c[nH]c2ncnc(-c3ccc(C(=O)NC4CCOC4)cc3)c12 (stereo not drawn) [Example 1-100, ethyl 4-[4-(tetrahydrofuran-3-ylcarbamoyl)phenyl]-7H-pyrrolo[2,3-d]pyrimidine-5-carboxylate]
7.33 | 8.38 |  |  | CCOC(=O)c1c[nH]c2ncnc(-c3ccc(-c4ccccc4)cc3)c12 [Example 1-44, ethyl 4-biphenyl-4-yl-7H-pyrrolo[2,3-d]pyrimidine-5-carboxylate]
 |  | 6.30 to 8.00 | 6.30 to 8.00 | CCOC(=O)c1c[nH]c2ncnc(-c3ccc(Cl)cc3)c12 [Example 1-2, Ethyl 4-(4-chlorophenyl)-7H-pyrrolo[2,3-d]pyrimidine-5-carboxylate]
 |  | < 6.30 | 6.30 to 8.00 | CCOC(=O)c1c[nH]c2ncnc(-c3coc4ccccc34)c12 [Example 1-63, ethyl 4-(1-benzofuran-3-yl)-7H-pyrrolo[2,3-d]pyrimidine-5-carboxylate]
< 5.83 | 9.96 |  |  | C=C(C)C(=O)Nc1cc(-c2ncnc3[nH]cc(C(=O)OCC)c23)ccc1CO [Example 4-25, ethyl 4-{4-(hydroxymethyl)-3-[(2-methylacryloyl)amino]phenyl}-7H-pyrrolo[2,3-d]pyrimidine-5-carboxylate]
< 5.83 | 10.60 |  |  | C=C(COC)C(=O)Nc1cccc(-c2ncnc3[nH]cc(C(=O)OCC)c23)c1 [Example 5-45, ethyl 4-(3-{[2-(methoxymethyl)acryloyl]amino}phenyl)-7H-pyrrolo[2,3-d]pyrimidine-5-carboxylate]
6.77 | 8.12 |  |  | CCOC(=O)c1c[nH]c2ncnc(-c3ccccc3F)c12 [Example 1-41, ethyl 4-(2-fluorophenyl)-7H-pyrrolo[2,3-d]pyrimidine-5-carboxylate]
 |  | 6.30 to 8.00 | 6.30 to 8.00 | CCOC(=O)c1c[nH]c2ncnc(-c3ccc(F)cc3)c12 [Example 1-34, ethyl 4-(4-fluorophenyl)-7H-pyrrolo[2,3-d]pyrimidine-5-carboxylate]
 |  | 6.30 to 8.00 | 6.30 to 8.00 | CCOC(=O)c1c[nH]c2ncnc(-c3cccc(OC)c3)c12 [Example 1-17, ethyl 4-(3-methoxyphenyl)-7H-pyrrolo[2,3-d]pyrimidine-5-carboxylate]
< 5.83 | 8.18 |  |  | CCOC(=O)c1c[nH]c2ncnc(-c3cccc(NC(=O)/C(C)=C/CN(C)C)c3)c12 [Example 17, Ethyl 4-(3-{[(2E)-4-(dimethylamino)-2-methylbut-2-enoyl]amino}phenyl)-7H-pyrrolo[2,3-d]pyrimidine-5-carboxylate]
 |  | < 6.30 | 6.30 to 8.00 | CCOC(=O)c1c[nH]c2ncnc(-c3cccc(NC(=O)/C=C/c4ccc(C(F)(F)F)cc4)c3)c12 [Example 5-44, ethyl 4-[3-({(2E)-3-[4-(trifluoromethyl)phenyl]prop-2-enoyl}amino)phenyl]-7H-pyrrolo[2,3-d]pyrimidine-5-carboxylate]
 |  | < 6.30 | 6.30 to 8.00 | CCOC(=O)c1c[nH]c2ncnc(-c3cc(N)nc(OC)c3)c12 [Example 1-4]
 |  | < 6.30 | 6.30 to 8.00 | CCOC(=O)c1c[nH]c2ncnc(-c3ccc4c(C(=O)N(C)C)n(C)nc4c3)c12 [Example 1-30, ethyl 4-[3-(dimethylcarbamoyl)-2-methyl-2H-indazol-6-yl]-7H-pyrrolo[2,3-d]pyrimidine-5-carboxylate]
7.11 | 8.34 |  |  | CCOC(=O)c1c[nH]c2ncnc(-c3ccc(C)c(N)c3)c12 [Example 1-22, ethyl 4-(3-amino-4-methylphenyl)-7H-pyrrolo[2,3-d]pyrimidine-5-carboxylate]
< 5.83 | 9.02 |  |  | C=C(C)C(=O)Nc1cccc(-c2ncnc3[nH]cc(-c4ccccc4F)c23)c1 [Example 20-3, N-{3-[5-(2-fluorophenyl)-7H-pyrrolo[2,3-d]pyrimidin-4-yl]phenyl}-2-methylprop-2-enamide]
 |  | 6.30 to 8.00 | 6.30 to 8.00 | CCOC(=O)c1c[nH]c2ncnc(-c3cccc(Nc4ncnc(C#N)n4)c3)c12 [Example 6-3, ethyl 4-{3-[(4-cyano-1,3,5-triazin-2-yl)amino]phenyl}-7H-pyrrolo[2,3-d]pyrimidine-5-carboxylate]
 |  | < 6.30 | 6.30 to 8.00 | C=C(C)C(=O)Nc1ccc(C#N)c(-c2ncnc3[nH]cc(C(=O)OCC)c23)c1 [Example 4-22, ethyl 4-{2-cyano-5-[(2-methylacryloyl)amino]phenyl}-7H-pyrrolo[2,3-d]pyrimidine-5-carboxylate]
< 5.83 | 8.82 |  |  | C=C(C)C(=O)Nc1cc(-c2ncnc3[nH]cc(C(=O)OCC)c23)ccc1CN(C)C [Example 4-30, ethyl 4-{4-[(dimethylamino)methyl]-3-[(2-methylacryloyl)amino]phenyl}-7H-pyrrolo[2,3-d]pyrimidine-5-carboxylate]

SMILES | pIC50 (JAK2) | pIC50 (JAK3) | pIC50 (JAK2; given as range class) | pIC50 (JAK3; given as range class)
CCOC(=O)c1c[nH]c2ncnc(C3=CCN(C(=O)OC(C)(C)C)CC3)c12 [Example 1-18, ethyl 4-[1-(tert-butoxycarbonyl)-1,2,3,6-tetrahydropyridin-4-yl]-7H-pyrrolo[2,3-d]pyrimidine-5-carboxylate] |  |  | 6.30 to 8.00 | 6.30 to 8.00
